Laboratory results: patent US5053070A, “Pyrimidine derivatives, preparation processes thereof, herbicide containing the same, and herbicidal compositions containing the same along with other active ingredient” (Mitsui Toatsu Chemicals, Incorporated, priority 1988, dated 1991)

Tests used:
[1] = test system: ALS (acetolactate syntase); assay: ALS enzyme assay (Test 1); format: biochemical, pea; conditions: 1,000 ppm (0.5 mg/0.5 ml)
Protocol: (§1) To determine the selectivity in enzyme level between crops and weeds, and ALS enzyme assay was conducted using pea as a representative of broadleaf crops and barnyardgrass as a representative of narrowleaf weeds.
(§2) After seeds of pea and barnyardgrass were allowed to germinate at 25° C. for 8-14 days in a dark place, partially-purified suspensions (Suspensions A) of acetolactate syntase were separately obtained from seedlings in accordance with the method described in the literature, Plant Physiology, 75, 827-831.
(§3) In a test tube, 0.5 mg of one of test compounds was weighed, followed by the addition of 0.15 ml of a 20 mM K2 HPO4 solution and 0.25 ml of a reaction substrate medium which consisted of 40 mM of K2 HPO4, 40 mM of sodium pyruvate, 1 mM of TPP, 1 mM of MgCl2 and 20 μM of FAD so that 0.4 ml of a reaction solution (Solution B) was prepared. Added to 0.4 ml of Solution B was 0.1 ml of suspension A. After the resultant mixture was shaken for 1 hour in a thermostat water bath controlled at 30° C., 50 μl of 6N sulfuric acid were added to terminate the reaction.
(§4) Next, the reaction-terminated liquid mixture was transferred into a thermostat water bath controlled at 60° C. and was heated for 15 minutes. Thereafter, 0.5 ml of a 0.5% creatine solution and 0.5 ml of a 5% alkaline α-naphthol solution were added, and the resultant mixture was maintained at 60° C. for 15 minutes. As a result, the test solution developed a pink-red color. After the above operation, the absorbance of the test solution at 525 nm was measured by a spectrophotometer (Absorbance 1 of Test Compound).
(§5) On the other hand, the absorbance (Absorbance 2 of Blank) of a solution obtained by subjecting a portion of Solution B, said portion being free of the test compound, to the above operation and the absorbance (Absorbance 3 of sulfuric acid terminated) of another solution obtained by subjecting another portion of Solution B, said portion containing 50 μl of 6N sulfuric acid as a test compound, were measured at the same time. Based on the values of the respective measurements, the enzyme assay at 1,000 ppm (0.5 mg/0.5 ml) of each compound was determined. [formula]

[2] = test system: cotton; assay: Upland foliar application test (Test 3), crop injury; format: in vivo; conditions: 30 g ai/a, foliar spray at 2-3 leaves, 30th day
Protocol: (§6) Resin-made 1/10000-are pots were filled with the soil of an upland field. Redroot pigweed, common lambsquarters, foxtail meadow, johnsongrass, barnyardgrass, green foxtail, large crabgrass, soybean, peanut and cotton were separately seeded and were allowed to germinate in a green house. When each plant grew to the stage of 2-3 leaves, an emulsion formulated from a predetermined amount of each test compound in a similar manner to the method described in Formulation Example 11 was diluted with water to a predetermined dilution rate and then sprayed at an application rate equal to 5 l per are onto the foliage of each plant by means of a pressure-operated ULV (ultra low volume) sprayer. Influence to the crops and weeds were observed on the 30th day after the spray of the herbicides. The results are shown in Table 4 in which the degree of damages of each test plant and the degree of injury to each crop are shown in a similar manner to Test 2.

[3] = test system: soybean; assay: as above; format: in vivo; conditions: 30 g ai/a, foliar spray at 2-3 leaves, 30th day
Protocol: as §6

[4] = test system: peanut; assay: as above; format: in vivo; conditions: 30 g ai/a, foliar spray at 2-3 leaves, 30th day
Protocol: as §6

[5] = test system: ALS (acetolactate syntase); assay: ALS enzyme assay (Test 1); format: biochemical, barnyardgrass; conditions: 1,000 ppm (0.5 mg/0.5 ml)
Protocol: as §1, §2, §3, §4, §5

[6] = test system: barnyardgrass; assay: Treatment of soil under submerged condition, post-emergence (Test 5); format: in vivo; conditions: 30 g ai/a granule, post-emergence (barnyardgrass two-leaf stage), 30 days later
Protocol: (§7) 1/5000-are Wagner pots were filled with soil. Seeds or tubers of barnyardgrass, Monochoria vaginalis, bulrush, Sagittaria pygmaea, Cyperus serroylnus and Eleocharis kuroguwai were seeded or planted under submerged condition. Two pairs of rice seedlings (2-3 leaf stage), which had been reared in advance, were transplanted to each pot and were allowed to grow in a green house. Each pair consisted of two rice seedlings. When the barnyardgrass grew to two-leaf stage, each pot was treated with a granule which had been prepared by processing a predetermined amount of the test composition in accordance with a similar method to the method described in Formulation Example 9. The state of emergence of weeds and the state of injury of rice were observed 30 days later.
(§8) In the table, the degrees of damages of the test plants and the degrees of injury of the rice are shown in a similar manner to Example 2.

[7] = test system: Sagittaria pygmaea; assay: as above; format: in vivo; conditions: 30 g ai/a granule, 30 days later
Protocol: as §7, §8

[8] = test system: bulrush; assay: as above; format: in vivo; conditions: 30 g ai/a granule, 30 days later
Protocol: as §7, §8

[9] = test system: rice; assay: Treatment of soil under submerged condition, post-emergence (Test 5), injury; format: in vivo; conditions: 30 g ai/a granule, 30 days later
Protocol: as §7, §8

[10] = test system: rice; assay: Treatment of soil under submerged condition, pre-emergence (Test 4), injury; format: in vivo; conditions: 30 g ai/a granule, 30 days later
Protocol: as §7, with “seroylnus” for “serroylnus”, “germinate” for “grow”, “One day later (before emergence of weeds),” for “When the barnyardgrass grew to two-leaf stage,”
In the table, the degrees of damages of the test plants and the degrees of injury of rice are shown in a similar manner to Example 2.

[11] = test system: large crabgrass; assay: Upland foliar application test (Test 3); format: in vivo; conditions: 30 g ai/a, foliar spray at 2-3 leaves, 30th day
Protocol: as §6

[12] = test system: green foxtail; assay: Upland foliar application test (Test 3); format: in vivo; conditions: 30 g ai/a, foliar spray at 2-3 leaves, 30th day
Protocol: as §6

[13] = test system: common lambsquarters; assay: Upland foliar application test (Test 3); format: in vivo; conditions: 30 g ai/a, foliar spray at 2-3 leaves, 30th day
Protocol: as §6

[14] = test system: foxtail meadow; assay: Upland foliar application test (Test 3); format: in vivo; conditions: 30 g ai/a, foliar spray at 2-3 leaves, 30th day
Protocol: as §6

[15] = test system: johnsongrass; assay: Upland foliar application test (Test 3); format: in vivo; conditions: 30 g ai/a, foliar spray at 2-3 leaves, 30th day
Protocol: as §6

[16] = test system: barnyardgrass; assay: Upland foliar application test (Test 3); format: in vivo; conditions: 30 g ai/a, foliar spray at 2-3 leaves, 30th day
Protocol: as §6

[17] = test system: redroot pigweed; assay: Upland foliar application test (Test 3); format: in vivo; conditions: 30 g ai/a, foliar spray at 2-3 leaves, 30th day
Protocol: as §6

SMILES | Inhibitory activity (%) Pea [1] [%] | Injury Cotton [2] | Injury Soybean [3] | Injury Peanut [4] | Inhibitory activity (%) Barnyardgrass [5] [%] | Herbicidal effects Barnyardgrass [6] | Herbicidal effects Sagittaria Pygmaea [7] | Herbicidal effects Bulrush [8] | Injury Rice [9] | Injury Rice [10] | Herbicidal effects Large crabgrass [11] | Herbicidal effects Green foxtail [12] | Herbicidal effects Common lambsquarters [13] | Herbicidal effects Foxtail meadow [14] | Herbicidal effects Johnsongrass [15] | Herbicidal effects Barnyardgrass [16] | Herbicidal effects Redroot pigweed [17]
COc1cc(OC)nc(Oc2ccccc2C=NOCC=C(C)C)n1 [Compound No. 7] | 0 | 0 (91-100 (No damages)) | 0 (91-100 (No damages)) | 0 (91-100 (No damages)) | 84 | 5 (0-5 (Death)) | 3 (11-40 (Medium damages)) | 5 (0-5 (Death)) | 0 (91-100 (No damages)) | 1 (71-90 (Slight damages)) | 5 (0-5 (Death)) | 5 (0-5 (Death)) | 4 (6-10 (Severe damages)) | 5 (0-5 (Death)) | 5 (0-5 (Death)) | 5 (0-5 (Death)) | 5 (0-5 (Death))
COc1cc(OC)nc(Oc2ccccc2C=NOCC=Cc2ccc(Cl)cc2Cl)n1 [compound 30] | 6 | 0 (91-100 (No damages)) | 0 (91-100 (No damages)) | 0 (91-100 (No damages)) | 97 | 5 (0-5 (Death)) | 4 (6-10 (Severe damages)) | 4 (6-10 (Severe damages)) | 0 (91-100 (No damages)) | 0 (91-100 (No damages)) | 5 (0-5 (Death)) | 5 (0-5 (Death)) | 4 (6-10 (Severe damages)) | 5 (0-5 (Death)) | 5 (0-5 (Death)) | 5 (0-5 (Death)) | 5 (0-5 (Death))
COc1cc(OC)nc(Oc2ccccc2C=NOCc2cccc3ccccc23)n1 [compound 22] | 0 | 0 (91-100 (No damages)) | 0 (91-100 (No damages)) | 0 (91-100 (No damages)) | 35 | 5 (0-5 (Death)) | 3 (11-40 (Medium damages)) | 4 (6-10 (Severe damages)) | 0 (91-100 (No damages)) | 0 (91-100 (No damages)) | 5 (0-5 (Death)) | 5 (0-5 (Death)) | 4 (6-10 (Severe damages)) | 5 (0-5 (Death)) | 5 (0-5 (Death)) | 5 (0-5 (Death)) | 5 (0-5 (Death))
COc1cc(OC)nc(Oc2ccccc2C=NOCC=C(C)Cl)n1 [compound 12] | 0 | 0 (91-100 (No damages)) | 0 (91-100 (No damages)) | 0 (91-100 (No damages)) | 39 | 5 (0-5 (Death)) | 3 (11-40 (Medium damages)) | 5 (0-5 (Death)) | 0 (91-100 (No damages)) | 1 (71-90 (Slight damages)) | 4 (6-10 (Severe damages)) | 4 (6-10 (Severe damages)) | 3 (11-40 (Medium damages)) | 4 (6-10 (Severe damages)) | 5 (0-5 (Death)) | 4 (6-10 (Severe damages)) | 3 (11-40 (Medium damages))
COc1cc(OC)nc(Oc2ccccc2C=NOCC=CCl)n1 [compound 11] | 0 | 0 (91-100 (No damages)) | 0 (91-100 (No damages)) | 0 (91-100 (No damages)) | 43 | 5 (0-5 (Death)) | 4 (6-10 (Severe damages)) | 4 (6-10 (Severe damages)) | 0 (91-100 (No damages)) | 1 (71-90 (Slight damages)) | 5 (0-5 (Death)) | 5 (0-5 (Death)) | 4 (6-10 (Severe damages)) | 5 (0-5 (Death)) | 5 (0-5 (Death)) | 5 (0-5 (Death)) | 5 (0-5 (Death))
